Assay results: US9289381B2, “Stabilization and storage of biological pharmaceutical compositions” (The University of North Carolina at Charlotte, priority 2009, dated 2016)
“And” between values parts separate entries of the source, which are not always exact repeats. Identical values can stand only once. Like-named read-outs stand apart in the source and are kept apart here.

Legend:
[1] = Osmolality by vapor pressure osmometer, osmotic coefficient; type: physicochemical
[2] = test system: J774 murine macrophage cell line
[3] = test system: mouse splenocytes; conditions: 24 h; for concentration with cytotoxicity (viability diminishes): splenocytes, medium without added buffer
[4] = test system: B16-F10 melanoma cells
[5] = test system: HT-2 cells
[6] = test system: J774 murine macrophage cell line; test: cells; conditions: Mus musculus, J774, 48 h
[7] = Yoshizawa-Fujita 2007; cited from earlier work
[8] = cited from earlier work
[9] = 350 mg/ml vs 1 mg/ml, aqueous solvent; cited from earlier work
[10] = 100 mM solutions in deionized water
[11] = read-out: Log EC50, μM (Dose Response Model) (converted)

CCCCC(CC)COP(=O)(O)OCC(CC)CCCC.CN(C)CCO (stereo not shown) [CBEH, Choline bis(2,ethyl hexyl) phosphate]
osmotic coefficient (φ) ([1]; 100 mM in water, 1 indicates 100% dissociation): 0.3
Osmotic Coef., φ in H2O [1, 10]: 0.31
anion effect ratio (AR) [2]: 113
shape of dose response [2]: hormetic response
Log EC50, μM (Dose Response Model) ([2]; J774, 48 h, value is the logarithm of EC50, error of last digit in parentheses, equation 1): 2.47 (3) μM
Log EC50, μM (Logistic Model) ([2]; J774, 48 h, value is the logarithm of EC50, modified (hormesis) model, equation 2, error of last digit in parentheses): 2.43 (3) μM
EC50 ([2]; J774, 48 h exposure): 0.3 mM

C[N+](C)(C)CCO.O=P([O-])(O)O [CDHP, choline dihydrogen phosphate]
shape of dose response [2]: hormetic response
anion effect ratio (AR) ([2]; mouse, pH 7.53): 1.7
concentration range with no cytotoxic activity detected ([3]; buffered medium ([…] (w/v) sodium bicarbonate)): 0 to 8e+07 nM
concentration with cytotoxicity (viability diminishes) [3]: > 35000 µM and > 40000 µM
concentration with cytotoxicity (viability diminishes) ([3]; listed as Choline-DHP): > 30000 µM
concentration range with no cytotoxic activity detected ([4]; buffered medium ([…] (w/v) sodium bicarbonate), 24 h): 0 to 8e+07 nM
concentration not cytotoxic ([4]; final culture medium concentration): 1000 to 30000 µM
cytotoxic activity ([4]; up to 80 mM C-DHP, DMEM F12 complete medium, 24 h, not buffered): doesn't demonstrate any significant cytotoxic activity
cytotoxic effect toward HT-2 lymphocytes [5]: no immediate cytotoxic effect
concentration range not cytotoxic ([5]; mouse): 0 to 3e+07 nM
EC50 [6]: 20000 µM
EC50 [6, 11]: 20400 µM
EC50 ([6]; read-out: Log EC50, μM (Logistic Model) (converted)): 19100 µM
thermal stability by thermal gravimetric analysis [7]: up to 200 °C

C[N+](C)(C)CCO.[Cl-] [Choline chloride, reference compound]
Osmotic Coef., φ in H2O [1]: 0.86
EC50 [2]: 33.7 mM
EC50 [6]: 34000 µM
EC50 [6, 11]: 33900 µM

[Cl-].[Na+] [Sodium chloride, reference compound]
Osmotic Coef., φ in H2O [1]: 0.91
EC50 [2]: 63 mM and 62.8 mM
Log EC50, μM (Dose Response Model) [2]: 4.8 (1) μM

OC[C@H]1O[C@H](O[C@H]2O[C@H](CO)[C@@H](O)[C@H](O)[C@H]2O)[C@H](O)[C@@H](O)[C@@H]1O [Trehalose, reference compound]
Osmotic Coef., φ in H2O [1, 10]: 1.01
EC50 [6]: > 100000 µM

Choline dibutyl phosphate [CDBP]
Osmotic Coef., φ in H2O [1]: 0.90
osmotic coefficient (φ) [1]: 0.9
EC50 [2]: 9.1 mM
Log EC50, μM (Dose Response Model) [2]: 3.96 (3) μM
anion effect ratio (AR) [2]: 3.7

cyt C: cytochrome c, protein of earlier literature studies in 80% w/w CDHP
thermal transition midpoint temperature before shift ([8]; Fujita 2006, 2007): 80 C.°
concentration dissolved ([8]; in 80% w/w CDHP (Fujita 2005, 2006)): 37000 µg/mL
thermal transition midpoint temperature after shift ([8]; stabilized in CDHP, Fujita 2006, 2007): 120 C.°

fibrinogen
increase of transition temperature at the higher concentration [9]: 3 °C

hemoglobin
increase of transition temperature at the higher concentration [9]: 8 °C
